Consider four compounds from ChEMBL document CHEMBL1137487, “Synthesis and biological activities of glycosphingolipid analogues from marine sponge Aplysinella rhax” (Bioorg Med Chem Lett, 2007).

Activity calls are given as the source filed them. No cut-off for these calls is given here.

For this test, the system named is J774.1. Kind of test: Inhibition of LPS-stimulated nitric oxide production in J774.1 cells. Format: functional, cell-based. To be noted: Mus musculus.
As for `CC(=O)N[C@H]1[C@H](O[C@H]2[C@H](O[C@H]3O[C@H](C)[C@H](O)[C@H](O)[C@H]3O)[C@@H](NC(C)=O)[C@H](OCC[Si](C)(C)C)O[C@@H]2CO)O[C@H](CO)[C@H](O)[C@@H]1O`, the outcome was Active.

Consider `CCCCCCCCCCCCCCC(CCCCCCCCCCCCCC)CO[C@@H]1O[C@H](CO)[C@@H](O[C@@H]2O[C@H](CO)[C@H](O)[C@H](O)[C@H]2O)[C@H](O[C@H]2O[C@H](C)[C@H](O)[C@H](O)[C@H]2O)[C@H]1NC(C)=O`, for which the outcome was Active.

In the case of `CCCCCCCCCCCCCCC(CCCCCCCCCCCCCC)CO[C@@H]1O[C@H](CO)[C@@H](O[C@@H]2O[C@H](CO)[C@H](O)[C@H](O)[C@H]2NC(C)=O)[C@H](O[C@H]2O[C@@H](C)[C@@H](O)[C@@H](O)[C@@H]2O)[C@H]1NC(C)=O` (stereo in doubt), the outcome was Active. The same measure for `CCCCCCCCCCCCCCC(CCCCCCCCCCCCCC)CO[C@@H]1O[C@H](CO)[C@@H](O[C@@H]2O[C@H](CO)[C@H](O)[C@H](O)[C@H]2NC(C)=O)[C@H](O[C@H]2O[C@H](C)[C@H](O)[C@H](O)[C@H]2O)[C@H]1NC(C)=O`: “Active”.
